The results in this text go back to patent US20170112858A1, “Extended Release Aspirin” (New Haven Pharmaceuticals, Inc., priority 2015, published 2017).

Format in all cases: in vivo, human
The nature of data set [1]: Single dose ASA pharmacokinetics in healthy adults (serial blood samples). As for the experimental part:
(§1) Healthy adults were randomized to receive single doses of extended release ASA (“ER ASA”) at a dosage of 20 mg, 40 mg, 81 mg, 162.5 mg ER ASA (Durlaza®; New Haven Pharmaceuticals, Inc., North Haven, Conn.), or 325 mg, or immediate release ASA (“IR ASA”; aspirin powder USP; Letco Medical, Decatur, Ala.) at a dosage of 5 mg, 10 mg, 20 mg, 40 mg or 81 mg. […] For pharmacodynamic assessments, serum 11-dehydro-thromboxane (“TxB2”, a stable metabolite of thromboxane A2) levels were assessed using a validated enzyme immunoassay kit in serial blood samples collected 1 hour before dosing and at 0.5, 1, 2, 4, 8, 16, and 24 hours after drug administration.

Data set [2] relates to serum TxB2 production. Put plainly: Single dose inhibition of serum TxB2 production in healthy adults (enzyme immunoassay). To be noted: highest doses: ER ASA 81, 162.5, 325 mg; IR ASA 40, 81 mg. The method, then:
as §1

Data set [3] relates to platelet aggregation. As to the kind of experiment: Light transmittance aggregometry (LTA), AA-, collagen-, ADP-induced, in type II diabetes subjects with vascular disease or CVD risk factors. The conditions noted are these: trough. As for the experimental part:
High platelet reactivity has previously been implicated in incomplete inhibition during therapy with immediate release low-dose aspirin in patients with type II diabetes. The main study consisted of a run-in phase where subjects were administered 81 mg, everyday (“QD”), of immediate release acetylsalicylic acid (“IR ASA”) for 7-28 days. […] For this study the trough level data are from the following timepoints: (1) for 81 mg—the data at Visit 2; […]

Data set [4] relates to endothelial function. Put plainly: Reactive hyperemia index (ENDOPAT pulsatile arterial tonometry). The method, then: Endothelial function was assessed using the ENDOPAT system ([…] Medical, Israel), a pulsatile arterial tonometry-based diagnostic device, at Visit 2, Visit 3, Visit 5, and Visit 6 predose. The reactive hyperemia index (“RHI”), a measure of endothelial function, and the augmentation index (“AI”), a measure of arterial stiffness, were determined. Endothelial dysfunction is defined as RHI <1.67. Normal arterial stiffness is defined as an AI -30% to -10%, increased arterial stiffness as an AI >-10% to 10%, and abnormal arterial stiffness as an AI >10%. The RHI measures vessel pliability which is a surrogate for nitric oxide production. The production of nitric oxide inhibits platelet aggregation. Thus, determining nitric oxide production following Durlaza® dosing is important to understanding its affect on platelet inhibition.

The test system of data set [5] is High Sensitive C-Reactive Protein (hs-CRP). As to the kind of experiment: High Sensitive C-Reactive Protein test (Immulite 2000 Xpi). The method, then: Subjects were also measured for high sensitive C-reactive protein (“hs-CRP”) levels at Visit 1, Visit 2, Visit 3 pre-dose, Visit 3 at 24 hours, Visit 6 pre-dose and Visit 6 at 24 hours.
High Sensitive C-Reactive Protein (“hs-CRP”) was measured using a Seimens Immulite 2000® Xpi analyzer (Immulite 2000 is a registered trademark of Siemens Healthcare Diagnostic, Inc.), prior to 162.5 mg ER ASA (Durlaza®) dosing at Visit 2 pre-dose, at Visit 3 pre-dose and Visit 3 at 24-hr post-dose for the 162.5 mg ER ASA (Durlaza®) dose, and at Visit 6 pre-dose and Visit 6 at 24-hr post-dose for the 325 mg ER ASA dose.

Data set [6] relates to TxB2. Put plainly: Excretion of thromboxane metabolite, urine GC/MS (Example 3). As for the experimental part: (§2) Subjects of Group 1 were randomly administered a placebo, 81 mg IR ASA and 162.5 mg IR ASA. Subjects of Group 2 were randomly administered a placebo, 81 mg ER ASA and 162.5 mg ER ASA (Durlaza®). Each subject was prohibited from taking any aspirin for two weeks prior to being administered the randomly chosen drug daily for 1 week followed by a urine collection 24 hours after dosing. This protocol was repeated two additional times. For each urine collection TxB2 and 2, 3-dinor-6-keto-PGF1α (“prostacyclin”) levels were measured using gas chromatography-mass spectrometry (“GC/MS”). Statistical analysis was done using Wilcoxon rank sum test for continuous variables and the Pearson test for categorical variables.

In data set [7] the test system is 2, 3-dinor-6-keto-PGF1α (prostacyclin). Put plainly: Excretion of prostacyclin metabolite, urine GC/MS (Example 3). As for the experimental part:
as §2

Where [8] appears, read: Visit 2, 81 mg IR QD (vs. Visit 3 pre dose).
Setting [9] is: Visit 2, 81 mg IR QD (vs. Visit 6 pre dose).

With `CC(=O)Oc1ccccc1C(=O)O` [IR ASA, acetylsalicylic acid], the “time required to reach the maximum concentration of ASA” value in data set [1] (all doses, single dose) is 1 to 2 h. For the same molecule, the “AUClast of ASA” value came out at 384 ng·h/mL in data set [1] (single dose 40 mg) and 865 ng·h/mL in data set [1] (single dose 81 mg). Further, in data set [2], the “single dose inhibition of TxB2 production” value is reported as “maintained during a 24-hour period”. In addition, the “LTA (%) 2 mM AA (Final), first line so headed” value turned out to be 5 ± 12% in data set [3] (setting [8]) and 3 ± 2% in data set [3] (setting [9]). The “LTA (%) 2 mM AA (Final), second line so headed” value amounted to 6 ± 13% in data set [3] (setting [8]) and 3 ± 2% in data set [3] (setting [9]). Also, the “subjects with RHI < 1.67 (n, %)” value is 4 (44) n, % in data set [4] (HPT Group, Visit 5, 81 mg IR ASA QD) and 11 (27.5) n, % in data set [4] (Visit 2, 81 mg IR ASA QD). The “subjects with hs-CRP >3 mg/L (n, %)” value in data set [5] (V2 pre-dose, 81 mg IR ASA) is on record as 23 (57) n, %. Also, the “patients meeting the criteria for elevated CRP” value in data set [5] (during 81 mg IR ASA therapy, total study population) stood at 47%. Besides, the “Bradykinin-stimulated TxB2 levels 4 hours post-dosing, over placebo” value in data set [6] (81 mg daily) and in data set [6] (162.5 mg daily) was “significantly reduced” in each case. Also, the “Basal urinary TxB2 levels 24 hours post-dosing, over placebo” value in data set [6] (81 mg daily for 1 week) and in data set [6] (162.5 mg daily for 1 week) was “significantly reduced” in each case. In data set [6] (81 vs 162.5 mg), the “dose dependence of the effect on TxB2 synthesis” value is recorded as “not seen”. In addition, the “Bradykinin-stimulated prostacyclin levels, over placebo” value in data set [7] (81 mg daily) and in data set [7] (162.5 mg daily) was “significantly reduced” throughout.
